Key:
Format in all cases: cell-based
HBsAg = test: PHH natural infection assay, HBsAg (alphalisa); settings: Hepatitis B virus, Hepatocyte, 72 h, read-out: HBsAg IC50
Experimental: (§1) Detailed procedures regarding primary human hepatocyte (PHH) HBV natural infection assay are described as below. One tube of frozen PHH (10 million cells) is thawed in 37° C. water bath and then transferred to 20 mL of PHH thawing medium (Sigma, InVitroGRO HT Medium, Cat. S03319) with gently mixing. The cells were then centrifuged at […] for 5 min, the supernatant was discarded and the tube was refilled with 25 mL of PHH plating medium (Sigma, InVitroGRO CP Medium, Cat. S03317). The tube was shaken very gently to re-suspend all cells, and then 50 µl of cells were transferred to each well 384-well collagen I coated plate with appropriate liquid handling equipment, e.g. Integra VIAFLO384 or Agilent Bravo. The cells were then cultured for 24 hours in a cell incubator. For HBV infection, after PHH attachment on the culture plate, the plating medium was removed and replenished with PHH culture medium containing HBV virus. The PHH culture medium was prepared with Dulbecco’s Modified Eagle Medium (DMEM)/F12 (1: 1 in volume ratio) containing 10% fetal bovine serum (Gibco, Cat.10099141), 5 ng/mL human epidermal growth factor (Gibco, Cat.PHG0311L), 20 ng/mL dexamethasone (Sigma, Cat.D4902-100 mg), 250 ng/mL human recombinant insulin (Gibco, Cat.41400045) and 100 U/mL penicillin. HBV virus at 200 genome equivalent (GE) per cell with 4% PEG8000 (Sigma, Cat.P1458) containing culture medium were added to the PHH culture medium for infection. The cells were then cultured for 24 hours in cell incubator. Then the cell culture supernatant was removed. The HBV-infected PHH were cultured with sandwich culture method with PHH culture medium containing 1% DMSO and 0.25 mg/mL matrix gel for 72 hours. The supernatant was then refreshed with PHH culture medium containing different concentrations of testing compounds for two times with 72-hour interval. At the end of treatment, the supernatant was collected for viral markers measurements, including HBsAg, HBeAg, HBV DNA and cytotoxicity. HBsAg and HBeAg were detected using alphalisa method using their specific antibodies. For HBV DNA detection, HBV DNA Quantitative Fluorescence Diagnostic Kit (Sansure Biotech Inc.) was used following the manufacture’s protocol. Cytotoxicity was determined using Cell Counting Kit-8 (CCK8, Dojindo Molecular Technologies, Inc.).
(§2) The compounds of the present invention were tested for their capacity to inhibit HBsAg and HBeAg as described herein.

HBeAg = test: PHH natural infection assay, HBeAg (alphalisa); settings: Hepatitis B virus, Hepatocyte, 72 h, read-out: HBeAg IC50
Experimental: as §1, §2

[1] = PHH natural infection assay, cytotoxicity (Cell Counting Kit-8); settings: HBV-infected primary human hepatocytes, CCK8
Experimental: as §1

Compound	IC50 (HBsAg) [nM]	IC50 (HBeAg) [nM]	CC50 at 144 h [1] [nM]
O=C(Nc1ccc(-c2nnc(-c3ccccc3)o2)cc1)c1ccc(F)cc1 [Example 12, 4-fluoro-N-[4-(5-phenyl-1,3,4-oxadiazol-2-yl)phenyl]benzamide]	6200	6330	> 100000
CC(C)C(=O)Nc1ccc(-c2nnc(-c3ccccc3)o2)cc1 [Example 6, 2-methyl-N-[4-(5-phenyl-1,3,4-oxadiazol-2-yl)phenyl]propanamide]	1330	2200	> 100000
O=C(Nc1ccc(-c2nnc(-c3ccccc3)o2)cc1)c1ccccc1F [Example 8, 2-fluoro-N-[4-(5-phenyl-1,3,4-oxadiazol-2-yl)phenyl]benzamide]	4170	5060	> 100000
O=C(Nc1ccc(-c2nnc(-c3ccccc3)o2)cc1)c1ccnc(Cl)c1 [Example 20, 2-chloro-N-[4-(5-phenyl-1,3,4-oxadiazol-2-yl)phenyl]pyridine-4-carboxamide]	1390	2560	> 100000
O=C(Nc1ccc(-c2nnc(-c3ccccc3)o2)cc1)c1ccnnc1 [Example 24, N-[4-(5-phenyl-1,3,4-oxadiazol-2-yl)phenyl]pyridazine-4-carboxamide]	1200	1600	> 100000
O=C(Nc1ccc(-c2nnc(-c3ccccc3)o2)cc1)c1ccc(Cl)cn1 [Example 23, 5-chloro-N-[4-(5-phenyl-1,3,4-oxadiazol-2-yl)phenyl]pyridine-2-carboxamide]	1230	2120	> 100000
O=C(Nc1ccc(-c2nnc(-c3ccccc3)o2)cc1)c1ccc(Cl)cc1 [Example 13, 4-chloro-N-[4-(5-phenyl-1,3,4-oxadiazol-2-yl)phenyl]benzamide]	5620	4430	> 100000
CCC(=O)Nc1ccc(-c2nnc(-c3ccccc3)o2)cc1 [Example 1, N-[4-(5-phenyl-1,3,4-oxadiazol-2-yl)phenyl]propanamide]	1190	4850	> 100000
O=C(Nc1ccc(-c2nnc(-c3ccccc3)o2)cc1)c1cccnn1 [Example 25, N-[4-(5-phenyl-1,3,4-oxadiazol-2-yl)phenyl]pyridazine-3-carboxamide]	1090	1270	> 100000
CN(C)c1ccc(-c2nnc(-c3ccccc3)o2)cc1 [Example 33, N,N-dimethyl-4-(5-phenyl-1,3,4-oxadiazol-2-yl)aniline]	7690	91600	> 100000
COCCC(=O)Nc1ccc(-c2nnc(-c3ccccc3)o2)cc1 [Example 5, 3-methoxy-N-[4-(5-phenyl-1,3,4-oxadiazol-2-yl)phenyl]propanamide]	590	690	> 100000
CC(C)(C)C(=O)Nc1ccc(-c2nnc(-c3ccccc3)o2)cc1 [Example 28, 2,2-dimethyl-N-[4-(5-phenyl-1,3,4-oxadiazol-2-yl)phenyl]propanamide]	7650	4230	> 100000
Cc1cc(Cl)cc(C(=O)Nc2ccc(-c3nnc(-c4ccccc4)o3)cc2)c1 [Example 11, 3-chloro-5-methyl-N-[4-(5-phenyl-1,3,4-oxadiazol-2-yl)phenyl]benzamide]	6400	12600	> 100000
O=C(Nc1ccc(-c2nnc(-c3ccccc3)o2)cc1)c1cccc(Cl)n1 [Example 22, 6-chloro-N-[4-(5-phenyl-1,3,4-oxadiazol-2-yl)phenyl]pyridine-2-carboxamide]	960	1590	> 100000
O=C(Nc1ccc(-c2nnc(-c3ccccc3)o2)cc1)c1ccccc1OC(F)F [Example 15, 2-(difluoromethoxy)-N-[4-(5-phenyl-1,3,4-oxadiazol-2-yl)phenyl]benzamide]	1940	1940	> 100000
Nc1ccc(-c2nnc(-c3ccccc3)o2)cc1F [Example 32, 2-Fluoro-4-(5-phenyl-1,3,4-oxadiazol-2-yl)aniline]	2390	2810	> 100000
COc1cc(C(=O)Nc2ccc(-c3nnc(-c4ccccc4)o3)cc2)ccn1 [Example 21, 2-methoxy-N-[4-(5-phenyl-1,3,4-oxadiazol-2-yl)phenyl]pyridine-4-carboxamide]	2000	1910	> 100000
CC(C)CC(=O)Nc1ccc(-c2nnc(-c3ccccc3)o2)cc1 [Example 4, 3-methyl-N-[4-(5-phenyl-1,3,4-oxadiazol-2-yl)phenyl]butanamide]	2800	3430	> 100000
O=C(Nc1ccc(-c2nnc(-c3ccccc3)o2)cc1)c1cccc(OC(F)(F)F)c1 [Example 16, N-[4-(5-phenyl-1,3,4-oxadiazol-2-yl)phenyl]-3-(trifluoromethoxy)benzamide]	1350	2910	> 100000
O=C(Nc1ccc(-c2nnc(-c3ccccc3)o2)cc1)c1cccc(OC(F)F)c1 [Example 17, 3-(difluoromethoxy)-N-[4-(5-phenyl-1,3,4-oxadiazol-2-yl)phenyl]benzamide]	1460	2790	> 100000
O=C(Nc1ccc(-c2nnc(-c3ccccc3)o2)cc1)c1ccncc1 [Example 19, N-[4-(5-phenyl-1,3,4-oxadiazol-2-yl)phenyl]pyridine-4-carboxamide]	4800	2800	> 100000
Cc1cc(F)cc(C(=O)Nc2ccc(-c3nnc(-c4ccccc4)o3)cc2)c1 [Example 10, 3-fluoro-5-methyl-N-[4-(5-phenyl-1,3,4-oxadiazol-2-yl)phenyl]benzamide]	1610	2170	> 100000
CC(C)(C)CC(=O)Nc1ccc(-c2nnc(-c3ccccc3)o2)cc1 [Example 29, 3,3-dimethyl-N-[4-(5-phenyl-1,3,4-oxadiazol-2-yl)phenyl]butanamide]	5100	9570	> 100000
CCCC(=O)Nc1ccc(-c2nnc(-c3ccccc3)o2)cc1 [Example 2, N-[4-(5-phenyl-1,3,4-oxadiazol-2-yl)phenyl]butanamide]	3000	43100	> 100000
CCCCC(=O)Nc1ccc(-c2nnc(-c3ccccc3)o2)cc1 [Example 3, N-[4-(5-phenyl-1,3,4-oxadiazol-2-yl)phenyl]pentanamide]	2390	3010	> 100000
COc1cc(-c2nnc(-c3ccccc3)o2)ccc1N [Example 31, 2-Methoxy-4-(5-phenyl-1,3,4-oxadiazol-2-yl)aniline]	1490	4170	> 100000
O=C(Nc1ccc(-c2nnc(-c3ccccc3)o2)cc1)C1CCCC1 [Example 7, N-[4-(5-phenyl-1,3,4-oxadiazol-2-yl)phenyl]cyclopentanecarboxamide]	510	770	> 100000
N#Cc1ccc(C(=O)Nc2ccc(-c3nnc(-c4ccccc4)o3)cc2)cc1 [Example 18, 4-cyano-N-[4-(5-phenyl-1,3,4-oxadiazol-2-yl)phenyl]benzamide]	2540	2260	> 100000
